Measurements published in ChEMBL document CHEMBL1127385, “Synthesis and diuretic activity of alkyl- and arylguanidine analogs of N,N'-dicyclohexyl-4-morpholinecarboxamidine in rats and dogs” (J Med Chem, 1994).
Several values for one entry are separate records, joined by “and”; a condition that tells them apart may be missing. Identical values can stand only once.

Legend:
Rattus norvegicus [1] = assay: Total electrolytic excretion of chlorine in urine of rats after peroral administration of 102 uM/Kg of drug; assay type: ADME, organism-based; settings: in vivo, po
Rattus norvegicus [2] = assay: Total electrolytic excretion of chlorine in urine of rats after peroral administration of 341 uM/Kg of drug; assay type: ADME, organism-based; settings: in vivo, po
Canis familiaris [3] = assay: Total electrolytic excretion of sodium in urine of dogs after peroral administration of 102 uM/Kg of drug; assay type: ADME, organism-based, Canis lupus familiaris; settings: dog, in vivo, po
Canis familiaris [4] = assay: Total electrolytic excretion of sodium in urine of dogs after peroral administration of 50.8 uM/Kg of drug; assay type: ADME, organism-based, Canis lupus familiaris; settings: dog, in vivo, po
Canis familiaris [5] = assay: Total electrolytic excretion of chlorine in urine of dogs after peroral administration of 50.8 uM/Kg of drug; assay type: ADME, organism-based, Canis lupus familiaris; settings: dog, in vivo, po
Canis familiaris [6] = assay: Total electrolytic excretion of chlorine in urine of dogs after intravenous administration of 3.03 uM/Kg of drug; assay type: ADME, organism-based, Canis lupus familiaris; settings: dog, in vivo
Rattus norvegicus [7] = assay: Total electrolytic excretion of sodium in urine of rats after peroral administration of 341 uM/Kg of drug; assay type: ADME, organism-based; settings: in vivo, po
Canis familiaris [8] = assay: Total electrolytic excretion of chlorine in urine of dogs after peroral administration of 34.1 uM/Kg of drug; assay type: ADME, organism-based, Canis lupus familiaris; settings: dog, in vivo, po
Rattus norvegicus [9] = assay: Ratio of Total electrolytic excretion of sodium and potassium in urine of rats after peroral administration of 50.8 uM/Kg of drug; assay type: ADME, organism-based; settings: in vivo, po
Canis familiaris [10] = assay: Tested for the diuretic activity by measuring the urinary volume after intravenous administering 30.3 uM/Kg of drug in dogs; assay type: ADME, organism-based, Canis lupus familiaris, Urine; settings: dog, in vivo
Canis familiaris [11] = species on record: Canis familiaris; assay: Systemic cardio vascular Hemodynamics of heart rate was measured in Beagle dogs after giving the dose of MNX plus the drug; assay type: functional, Canis lupus familiaris
Canis familiaris [12] = assay: Tested for the diuretic activity by measuring the urinary volume after peroral administering 102 uM/Kg of drug in dogs; assay type: ADME, organism-based, Canis lupus familiaris, Urine; settings: dog, in vivo, po
Canis familiaris [13] = assay: Total electrolytic excretion of sodium in urine of dogs after intravenous administration of 30.3 uM/Kg of drug; assay type: ADME, organism-based, Canis lupus familiaris; settings: dog, in vivo
Rattus norvegicus [14] = assay: Ratio of Total electrolytic excretion of sodium and potassium in urine of rats after peroral administration of 34.1 uM/Kg of drug; assay type: ADME, organism-based; settings: in vivo, po
Canis familiaris [15] = assay: Total electrolytic excretion of sodium in urine of dogs after peroral administration of 68.1 uM/Kg of drug; assay type: ADME, organism-based, Canis lupus familiaris; settings: dog, in vivo, po
Rattus norvegicus [16] = assay: Ratio of Total electrolytic excretion of sodium and potassium in urine of rats after intravenous administration of 30.3 uM/Kg of drug; assay type: ADME, organism-based; settings: in vivo
Canis familiaris [17] = assay: Tested for the diuretic activity by measuring the urinary volume after peroral administering 34.1 uM/Kg of drug in dogs; settings: dog, in vivo, po
Canis familiaris [18] = species on record: Canis familiaris; assay: Systemic cardio vascular Hemodynamics of cardiac index was measured in Beagle dogs after giving the dose of MNX; assay type: functional, Canis lupus familiaris, Heart
Rattus norvegicus [19] = assay: Ratio of Total electrolytic excretion of sodium and potassium in urine of rats after peroral administration of 341 uM/Kg of drug; assay type: ADME, organism-based; settings: in vivo, po

Excretion Cl- (Rattus norvegicus [1]): 1.65 m equiv | Excretion Cl- (Rattus norvegicus [2]): 1.64 m equiv | Excretion Na+ (Canis familiaris [3]): 22.5 m equiv | Excretion Na+ (Canis familiaris [4]): 11.9 m equiv | Excretion Cl- (Canis familiaris [5]): 9.8 m equiv | Excretion Cl- (Canis familiaris [6]): 5.4 m equiv | Excretion Na+ (Rattus norvegicus [7]): 1.73 m equiv | Excretion Cl- (Canis familiaris [8]): 9.4 m equiv | Ratio (Rattus norvegicus [9]): 6.1 | V (Canis familiaris [10]): 114 mL | V (Canis familiaris [12]): 154 mL | Excretion Na+ (Canis familiaris [13]): 13.1 m equiv | Ratio (Rattus norvegicus [14]): 3.6 and 9.6 and 9.1 | Excretion Na+ (Canis familiaris [15]): 14 m equiv | Ratio (Rattus norvegicus [16]): 8.6 | V (Canis familiaris [17]): 81 mL | Ratio (Rattus norvegicus [19]): 5
SMILES: C1CCC(N=C(NC2CCCCC2)N2CCOCC2)CC1
HR (Canis familiaris [11]): 132 beats min-1 | CI (Canis familiaris [18]): 260 mL/min/kg
